One assay deals with HBV εRNA. Kind of assay: εRNA/oligonucleotide hybridization inhibition assay with rRNA competitor. In kind it is binding, Hepatitis B virus. The note with it: for IC50: radiolabeled εRNA, 60-fold excess rRNA competitor; for Specificity: ratio RRE+rRNA IC50/εRNA+rRNA IC50, max = inactive in RRE assay. The text has this:
One assay used in determining the activity of the compounds of the present invention is disclosed in copending U.S. patent application Ser. No. 08/709,342, filed Sep. 6, 1996, the disclosure of which is hereby incorporated herein by reference in its entirety. The assay detects the interaction between target RNA molecule and a test ligand by measuring the ligand's ability to inhibit hybridization between the RNA and a specific complementary oligonucleotide. In one embodiment, the target RNA is radiolabelled and the oligonucleotide is labeled with biotin; in this case, the extent of hybridization is determined by measuring the amount of radiolabeled RNA detected with a streptavidin/biotin-based capture system.
Concentrations of test compounds of between about 0.1 μM and about 200 μM are assayed for inhibition using radiolabeled εRNA in the absence or presence of a large excess of an unlabeled non-specific RNA competitor (such as, e.g., ribosomal RNA, rRNA). Compounds that bind εRNA non-specifically are competitively displaced by the rRNA, resulting in reduced or no inhibition of hybridization between the radiolabeled εRNA and the biotinylated oligonucleotide. Conversely, the inhibitory activity of compounds that specifically bind εRNA is not affected by the presence of the competitor rRNA.
The high throughput assays were performed in 96-well plates containing eighty drugs (5 μl, 60 μg/ml in DMSO) distributed one per well in columns 2-6 and 8-12 of the 8×12 96-well array. The remaining 16 wells in columns 1 and 7 were filled with 5 μl DMSO to serve as the control reactions. 45 μl of reaction mixture containing buffer, salts and radiolabeled target RNA were delivered on each well of the compound-containing plates to yield a 50 μl mixture containing 50 mM Tris-HCl, pH 7.5, 200 mM KCl, 5 mM MgCl2, 5 mM DTT, 6 μg/ml test compound, and 25 nM [^32 P]-labeled εRNA. The reaction was started by addition of the biotinylated oligonucleotide, 262.104 A (5 μl) to a final concentration of 100 nM. The reaction was incubated at 25° C. for 60 minutes, and then 5 μl of 0.3 mg/ml SAAP (streptavidin alkaline phosphatase conjugate, Pierce, Rockford, Ill.) was added. The reaction was incubated for an additional 30 minutes at 25° C. and filtered through 96-well format HATF nitrocellulose filters (Millipore, Bedford, Mass.) using a multiscreen vacuum manifold (Millipore, Bedford, Mass.). Subsequently, 300 μl of wash buffer (50 mM Tris-HCl, pH 7.5, 200 mM KCl) was filtered through to wash the filters. The filters were dried and supplemented with 20 μl scintillation fluid (Super Mix, Wallac Oy, Turku, Finland). The amount of hybrids formed was determined by scintillation counting of the radiolabeled εRNA retained on the filters.
The inhibitory effect of a test compound (expressed as percentage of inhibition, % Inh.) was calculated using the following formula: […]
where Ro is the average retention of hybrids in the 16 identical control reactions in columns 1 and 7 and Rx is the hybrids retained in the presence of a test drug, x.
(§1) Biotinylated oligonucleotides 262.104 A (5′-biotin-TTAGGCACAGCTTGGAGGCTTGAACAGTG-3′) and 208.92 A (5′-biotin-CGTCATTGACGCTGCGCCCA-3′) were synthetically prepared (Oligos Etc., Willsonville, Oreg.). These oligonucleotides are complementary to regions of the εRNA and RRE RNA targets, respectively.
A plasmid containing the target sequence following the bacteriophage SP6 promoter was used as a template for the synthesis of radiolabeled εRNA using [α^32 P]-UTP and SP6 RNA polymerase as described by the suppliers, e.g., Ambion, Austin, Tex., and by methods well known to those of ordinary skill in the art.
Compounds that inhibited the primary screening assay described above were individually titrated in the same assay at concentrations between 0.1 μM and 200 μM in the absence and presence of 60-fold excess rRNA as a non-specific competitor. […]

For a further assay, the system named is HIV derived RRE RNA. Kind of assay: heterologous hybridization inhibition assay with RRE RNA. Conditions: radiolabeled RRE RNA, rRNA competitor; call rule not given here. In kind it is binding.
Text: Specificity is further tested in a third assay in which the radiolabeled RNA is the HIV derived RRE RNA and the biotinylated oligonucleotide is complementary to RRE. Compounds with high specific activity for εRNA are not expected to be inhibitory in the RRE RNA based assay. The specificity of the ligand for εRNA is expressed as the ratio between the IC50 value obtained with the specific target RNA and the IC50 value obtained with a heterologous target (RRE RNA), both in the presence of competitor RNA.
as §1
Compounds that inhibited the primary screening assay described above were individually titrated in the same assay at concentrations between 0.1 μM and 200 μM in the absence and presence of 60-fold excess rRNA as a non-specific competitor. A third titration was performed in a heterologous assay using radiolabeled RRE RNA as the target and the complementary biotinylated oligonucleotide 208.92 A. From these three assays, the IC50 values and specificity for each compound was calculated.
IC50 values using rRNA competitor (from Example 1) and radiolabeled RRE RNA are shown in Table 1 for the following ligands. […] Specificity is calculated as the ratio of RRE+rRNA IC50/εRNA+rRNA IC50.

As a reminder, the IC50 is the concentration that gives 50% inhibition. Consider `Cc1ccccc1Nc1nc(NN=Cc2ccc(-c3ccc([N+](=O)[O-])cc3)o2)nc(Nc2ccc([N+](=O)[O-])cc2)n1` [Compound 112], for which, in the assay on HBV εRNA, the IC50 worked out at 25 µM and the Specificity is 30.0. Also, the IC50 with HIV derived RRE RNA was 751 µM.

As for `CCCCN(CCCC)c1nc(NN=C(C)c2ccc([N+](=O)[O-])cc2)nc(Nc2ccc([N+](=O)[O-])cc2)n1` [Compound 82], in the assay with HBV εRNA, the IC50 stood at 150 µM and the Specificity result is “max”. Besides, the “RRE + rRNA IC50 (μM)” value in the assay on HIV derived RRE RNA is “inactive”.

Turning to `O=[N+]([O-])c1ccc(Nc2nc(NN=Cc3cccc(F)c3)nc(N3CCCCCC3)n2)cc1` [Compound 78], in the assay with HBV εRNA, the IC50 is 133 µM and the Specificity entry was “max”. The “RRE + rRNA IC50 (μM)” value with HIV derived RRE RNA is “inactive”.

Take `O=[N+]([O-])c1ccc(Nc2nc(NN=CC(Br)=Cc3ccccc3)nc(Nc3ccccc3)n2)cc1` [Compound 17]: in the assay with HBV εRNA, the IC50 amounted to 15.1 µM and the Specificity entry is listed as “max”. Further, the “RRE + rRNA IC50 (μM)” value with HIV derived RRE RNA is “inactive”.

As to `CC(=NNc1nc(Nc2ccc([N+](=O)[O-])cc2)nc(N2CCCCC2)n1)c1ccccc1` [Compound 151], the values for the IC50 in the assay with HBV εRNA and with HIV derived RRE RNA were 200 µM and 700 µM, respectively. Moreover, in the assay on HBV εRNA, the Specificity worked out at 3.5.

Regarding `CCCCN(CCCC)c1nc(N/N=C/C(C)=C/c2ccccc2)nc(Nc2ccc([N+](=O)[O-])cc2)n1` [Compound 31], in the assay with HBV εRNA, the IC50 was determined as 30 µM and the Specificity entry is “max”. Moreover, the “RRE + rRNA IC50 (μM)” value with HIV derived RRE RNA was “inactive”.

With `COc1ccc([N+](=O)[O-])cc1C=NNc1nc(Nc2ccccc2)nc(N2CCCCC2)n1` [Compound 143], in the assay on HBV εRNA, the IC50 is 446 µM and the Specificity stood at 0.5. In the assay on HIV derived RRE RNA, the IC50 worked out at 223 µM.

`O=[N+]([O-])c1ccc(Nc2nc(NN=Cc3cccc(Oc4ccc([N+](=O)[O-])cc4[N+](=O)[O-])c3)nc(N3CCCCCC3)n2)cc1` [Compound 116]: in the assay on HBV εRNA, the IC50 was 20 µM and the Specificity was found to be 1.3. Moreover, the IC50 in the assay with HIV derived RRE RNA was 25.1 µM.

Take `Clc1ccccc1C=NNc1nc(Nc2ccccc2)nc(N2CCOCC2)n1` [Compound 73]: in the assay with HBV εRNA, the half-maximal inhibitory concentration (IC50) is 120 µM and the Specificity entry was “max”. The “RRE + rRNA IC50 (μM)” value in the assay on HIV derived RRE RNA was “inactive”.

Turning to `CCCCN(CCCC)c1nc(NN=Cc2cc3c(cc2Br)OCO3)nc(Nc2ccc([N+](=O)[O-])cc2)n1` [Compound 114], in the assay on HBV εRNA, the IC50 was 40 µM and the Specificity was determined as 5.5. Further, the IC50 with HIV derived RRE RNA was 220 µM.

`O=[N+]([O-])c1ccc(Nc2nc(NN=Cc3cc(Br)ccc3O)nc(N3CCCCCC3)n2)cc1` [Compound 90]: in the assay with HBV εRNA, the IC50 was determined as 15 µM and the Specificity worked out at 3.0. Besides, the IC50 in the assay with HIV derived RRE RNA turned out to be 44.9 µM.

With `O=[N+]([O-])c1cccc(C=NNc2nc(Nc3cccc4ccccc34)nc(N3CCOCC3)n2)c1O` [Compound 64], in the assay with HBV εRNA, the IC50 turned out to be 71.9 µM and the Specificity result is recorded as “max”. For the same compound, in the assay with HIV derived RRE RNA, the “RRE + rRNA IC50 (μM)” value was “inactive”.

For `Cc1ccc(C=NNc2nc(Nc3ccccc3)nc(Nc3ccc([N+](=O)[O-])cc3)n2)cc1` [Compound 66], in the assay on HBV εRNA, the IC50 is 114 µM and the Specificity result is recorded as “max”. Besides, the “RRE + rRNA IC50 (μM)” value with HIV derived RRE RNA is “inactive”.

In the case of `O=[N+]([O-])c1ccc(Nc2nc(NN=Cc3ccccc3F)nc(N3CCCCCC3)n2)cc1` [Compound 48], in the assay on HBV εRNA, the IC50 turned out to be 30 µM and the Specificity result is given as “max”. Further, in the assay on HIV derived RRE RNA, the “RRE + rRNA IC50 (μM)” value was “inactive”.

For the compound `O=C(C(=NNc1nc(NCc2ccccc2)nc(Nc2ccc([N+](=O)[O-])cc2)n1)c1ccccc1)c1ccccc1` [Compound 131], in the assay with HBV εRNA, the IC50 turned out to be 36.7 µM and the Specificity is 1.0. In the assay on HIV derived RRE RNA, the IC50 stood at 36.7 µM.

For `CN1CCN(c2nc(NN=Cc3cccc(Br)c3)nc(Nc3ccc([N+](=O)[O-])cc3)n2)CC1` [Compound 95], in the assay with HBV εRNA, the IC50 amounted to 13.7 µM and the Specificity was 2.8. Besides, in the assay on HIV derived RRE RNA, the IC50 is 39 µM.

On to `Cc1ccc(Nc2nc(NN=Cc3ccc(-c4cccc(C(=O)O)c4)o3)nc(Nc3ccc([N+](=O)[O-])cc3)n2)cc1C` [Compound 76], for which, in the assay with HBV εRNA, the IC50 came to 200 µM and the Specificity result is recorded as “max”. The “RRE + rRNA IC50 (μM)” value in the assay with HIV derived RRE RNA was “inactive”.

In the case of `CCCCN(CCCC)c1nc(N/N=C/c2c3ccccc3cc3ccccc23)nc(Nc2ccc([N+](=O)[O-])cc2)n1` [Compound 55], in the assay with HBV εRNA, the IC50 worked out at 100 µM and the Specificity entry was “max”. The “RRE + rRNA IC50 (μM)” value with HIV derived RRE RNA is “inactive”.

In the case of `O=[N+]([O-])c1ccc(Nc2nc(NN=Cc3c(O)ccc4ccccc34)nc(N3CCOCC3)n2)cc1` [Compound 96], the figures for the IC50 in the assay on HBV εRNA and in the assay on HIV derived RRE RNA were 15 µM and 75 µM, respectively. For the same compound, the Specificity in the assay with HBV εRNA amounted to 5.0.

As to `COc1ccc(/C=N/Nc2nc(Nc3ccc([N+](=O)[O-])cc3)nc(N3CCOCC3)n2)cc1` [Compound 75], in the assay with HBV εRNA, the IC50 amounted to 160 µM and the Specificity result is recorded as “max”. Further, in the assay with HIV derived RRE RNA, the “RRE + rRNA IC50 (μM)” value was “inactive”.

As to `Cc1ccc(Nc2nc(NN=Cc3ccc(O)cc3)nc(Nc3ccccc3)n2)c(C)c1` [Compound 81], in the assay on HBV εRNA, the IC50 was 120 µM and the Specificity entry was “max”. Besides, the “RRE + rRNA IC50 (μM)” value in the assay on HIV derived RRE RNA is “inactive”.

As for `O=[N+]([O-])c1ccc(Nc2nc(NN=Cc3ccc(O)c([N+](=O)[O-])c3)nc(N3CCOCC3)n2)cc1` [Compound 152], in the assay with HBV εRNA, the IC50 came to 300 µM and the Specificity is reported as 0.5. In addition, the IC50 with HIV derived RRE RNA was determined as 150 µM.

For `O=[N+]([O-])c1ccc(Nc2nc(NN=Cc3cccc(Br)c3)nc(N3CCCCCC3)n2)cc1` [Compound 45], in the assay on HBV εRNA, the concentration for half-maximal inhibition (IC50) amounted to 39.9 µM and the Specificity entry was “max”. Besides, the “RRE + rRNA IC50 (μM)” value with HIV derived RRE RNA was “inactive”.

With `C(=N\Nc1nc(Nc2ccccc2)nc(N2CCOCC2)n1)/c1c[nH]c2ccccc12` [Compound 79], in the assay on HBV εRNA, the IC50 came to 169 µM and the Specificity entry is recorded as “max”. In addition, the “RRE + rRNA IC50 (μM)” value in the assay with HIV derived RRE RNA is “inactive”.

For `C(=NNc1nc(NCc2ccccc2)nc(Nc2ccccc2)n1)c1ccccc1` [Compound 84], in the assay with HBV εRNA, the IC50 is 120 µM and the Specificity result was “max”. The “RRE + rRNA IC50 (μM)” value with HIV derived RRE RNA was “inactive”.

Turning to `O=[N+]([O-])c1ccc(Nc2nc(NN=Cc3c[nH]c4ccccc34)nc(N3CCCCCC3)n2)cc1` [Compound 87], in the assay with HBV εRNA, the IC50 stood at 8.1 µM and the Specificity was 37.0. Besides, the IC50 in the assay on HIV derived RRE RNA came out at 300 µM.

`Clc1ccccc1C=NNc1nc(Nc2ccccc2)nc(N2CCCC2)n1` [Compound 127]: the IC50 with HBV εRNA and in the assay on HIV derived RRE RNA was 80 µM throughout. In addition, the Specificity in the assay on HBV εRNA was 1.0.
